Data on three molecules can be found in patent publication US6677277B1, “Substituted sulphonyl amino(thio)carbonyl compounds and their use as herbicides” (Bayer Aktiengesellschaft, priority 1996, dated 2004).

Type in all cases: in vivo
Experiment [1] deals with Alopecurus. As to the kind of experiment: Pre-emergence test/greenhouse. To be noted: 125 g ai./ha, after three weeks. The method, boiled down:
(§1)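 Plants are scored three weeks after treatment for percent damage relative to untreated controls. Treatment is a soil spray applied roughly one day after seeds are sown in normal soil, using a water-diluted acetone/emulsifier concentrate at a volume of 1000 l/ha.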

Experiment [2] concerns Amaranthus. Briefly: Pre-emergence test/greenhouse. To be noted: 125 g ai./ha, after three weeks. The method, boiled down: as §1
Experiment [3] has as its system Chenopodium. Briefly: Pre-emergence test/greenhouse. To be noted: 125 g ai./ha, after three weeks. The method, boiled down:
as §1

Experiment [4] concerns Cotton. As to the kind of experiment: Pre-emergence test/greenhouse. The settings on record: 125 g ai./ha, after three weeks. The method, boiled down:
as §1

For experiment [5], the system named is Maize. Briefly: Pre-emergence test/greenhouse. To be noted: 125 g ai./ha, after three weeks. Put shortly:
as §1

In experiment [6] the test system is Matricaria. Briefly: Pre-emergence test/greenhouse. The settings on record: 125 g ai./ha, after three weeks. The method, boiled down:
as §1

Experiment [7] relates to Sorghum. Briefly: Pre-emergence test/greenhouse. The settings on record: 125 g ai./ha, after three weeks. The method, boiled down: as §1
Experiment [8] has as its system Viola. Briefly: Pre-emergence test/greenhouse. The settings on record: 125 g ai./ha, after three weeks. The method, boiled down:
as §1

The subject of experiment [9] is weeds. As to the kind of experiment: Pre-emergence test. To be noted: cf. Tables A-1 to A-5. The method, boiled down: as §1
The subject of experiment [10] is Alopecurus. As to the kind of experiment: Post-emergence test/greenhouse. The settings on record: 60 g ai./ha, after three weeks. The method, boiled down:
(§2)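 Readout is percent plant damage relative to untreated controls, scored three weeks post-spray. Plants at 5–15 cm height received compound emulsified (acetone, alkylaryl polyglycol ether) in water, delivered at chosen per-area amounts in 1000 l water/ha.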

In experiment [11] the test system is Ipomoea. As to the kind of experiment: Post-emergence test/greenhouse. The settings on record: 60 g ai./ha, after three weeks. Put shortly: as §2
Experiment [12] concerns Lolium. As to the kind of experiment: Post-emergence test/greenhouse. The settings on record: 60 g ai./ha, after three weeks. The method, boiled down: as §2
In experiment [13] the test system is Solanum. Briefly: Post-emergence test/greenhouse. To be noted: 60 g ai./ha; for Solanum, % damage: Table B-4, post-emergence, rated after three weeks vs untreated control. Put shortly:
as §2

Experiment [14] relates to Sorghum. Briefly: Post-emergence test/greenhouse. The settings on record: 60 g ai./ha; for Sorghum, % damage: Table B-4, post-emergence, rated after three weeks vs untreated control. The method, boiled down: as §2
The test system of experiment [15] is Stellaria. Briefly: Post-emergence test/greenhouse. The settings on record: 60 g ai./ha, after three weeks. Put shortly:
as §2

Experiment [16] has as its system Wheat. Briefly: Post-emergence test/greenhouse. To be noted: 60 g ai./ha, after three weeks. The method, boiled down:
as §2

Experiment [17] deals with weeds. Briefly: Post-emergence test. To be noted: cf. Tables B-1 to B-4. Put shortly:
as §2

Experiment [18] deals with Amaranthus. Briefly: Post-emergence test/greenhouse. The settings on record: Table B-4, post-emergence, 60 g ai./ha, rated after three weeks vs untreated control. Put shortly: as §2
In experiment [19] the test system is Xanthium. Briefly: Post-emergence test/greenhouse. To be noted: Table B-4, post-emergence, 60 g ai./ha, rated after three weeks vs untreated control. Put shortly:
as §2

The subject of experiment [20] is Echinochloa. Briefly: Post-emergence test/greenhouse. The settings on record: Table B-4, post-emergence, 60 g ai./ha, rated after three weeks vs untreated control. As to the method: Emulsifier: 1 part by weight of alkylaryl polyglycol ether To produce a suitable preparation of active compound, 1 part by weight of active compound is mixed with the stated amount of solvent, the stated amount of emulsifier is added and the concentrate is diluted with water to the desired concentration. Test plants which have a height of 5-15 cm are sprayed with the preparation of the active compound in such a way as to apply the particular amounts of active compound desired per unit area. The concentration of the spray liquor is chosen so that the particular amounts of active compound desired are applied in 1000 l of water/ha. After three weeks, the degree of damage to the plants is rated in % damage in comparison to the development of the untreated control.

The test system of experiment [21] is Lolium. Briefly: Pre-emergence test/greenhouse. The settings on record: 125 g ai./ha, after three weeks. The method, boiled down:
as §1

The subject of experiment [22] is Solanum. As to the kind of experiment: Pre-emergence test/greenhouse. The settings on record: 125 g ai./ha, after three weeks. The method, boiled down:
as §1

Setting [23] is: post-emergence, after three weeks.

With `COc1cccc(SC(C)C)c1S(=O)(=O)NC(=O)n1nc(OC)n(C)c1=O` [Example 24], the “% damage, Alopecurus” value in [1] stood at 95%; in experiment [10], 90%. Further, the “% damage, Amaranthus” value in experiment [2] is 100%. Also, the “% damage, Chenopodium” value in [3] turned out to be 100%. Moreover, in experiment [4], the “% damage, Cotton” value turned out to be 0%. For the same molecule, in experiment [5], the “% damage, Maize” value was 0%. For the same molecule, in [6], the “% damage, Matricaria” value is given as 70%. Moreover, the “% damage, Sorghum” value was 70% in [7] and 90% in experiment [14] (setting [23]). Further, the “% damage, Viola” value in experiment [8] amounted to 100%. The activity against weeds result in [9] and in experiment [17] was “very strong activity” each time. The “% damage, Ipomoea” value in experiment [11] stood at 90%. Besides, in experiment [12], the “% damage, Lolium” value stood at 60%. Moreover, the “% damage, Solanum” value in [13] (setting [23]) is listed as 95%. Besides, the “% damage, Stellaria” value in experiment [15] is given as 95%. Besides, the “% damage, Wheat” value in experiment [16] was determined as 15%.

As for `COc1nn(C(=O)NS(=O)(=O)c2c(SC)cccc2SC)c(=O)n1C` [Example 50], in experiment [18], the “Amaranthus, % damage” value was determined as 95%. Moreover, in [13], the “Solanum, % damage” value is listed as 95%. The “Sorghum, % damage” value in experiment [14] worked out at 95%. In experiment [19], the “Xanthium, % damage” value is on record as 95%. Besides, in experiment [17], the activity against weeds result was “very strong activity”. Moreover, the “Echinochloa, % damage” value in experiment [20] came out at 80%.

Turning to `CCOc1nn(C(=O)NS(=O)(=O)c2c(OC)cccc2SCCF)c(=O)n1C` [Example 59], the “% damage, Alopecurus” value in experiment [1] is reported as 100%. The “% damage, Amaranthus” value in experiment [2] is on record as 100%. In addition, in experiment [3], the “% damage, Chenopodium” value is 100%. Besides, the “% damage, Lolium” value in [21] is 100%. Moreover, in [6], the “% damage, Matricaria” value is listed as 100%. Moreover, the “% damage, Solanum” value in experiment [22] is given as 100%. For the same molecule, in experiment [7], the “% damage, Sorghum” value is recorded as 100%. The activity against weeds entry in experiment [9] and in [17] was “very strong activity” throughout. Also, the “Amaranthus, % damage” value in [18] was found to be 100%. For the same molecule, the “Solanum, % damage” value in [13] was 90%. In experiment [14], the “Sorghum, % damage” value turned out to be 100%. The “Xanthium, % damage” value in [19] turned out to be 95%. Also, the “Echinochloa, % damage” value in experiment [20] came to 100%.
